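Protocol summary: plate cells (96-well), add compound at 5 concentrations, incubate 48 h, interpolate endpoints linearly. GI50 = concentration required for 50% inhibition of growth. At the TGI there is no net growth.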
Key:
Assay in all cases: inhibition of tumour cell growth, NCI panel, 48 h
HOP-62 NSCLC = tested on: HOP-62 NSCLC
EKVX NSCLC = tested on: EKVX NSCLC
PC-3 prostate = tested on: PC-3 prostate
DU-145 prostate = tested on: DU-145 prostate
SN12C renal = tested on: SN12C renal
SR leukemia = tested on: SR leukemia
K-562 leukemia = tested on: K-562 leukemia
NCI-H23 lung = tested on: NCI-H23 lung
HOP-92 NSCLC = tested on: HOP-92 NSCLC
HT29 colon = tested on: HT29 colon
LOX IMVI melanoma = tested on: LOX IMVI melanoma
NCI-H522 lung = tested on: NCI-H522 lung
HS 578T breast = tested on: HS 578T breast
T-47D breast = tested on: T-47D breast
MCF7 breast = tested on: MCF7 breast
SNB-19 CNS = tested on: SNB-19 CNS
COLO 205 colon = tested on: COLO 205 colon
UACC-62 melanoma = tested on: UACC-62 melanoma
MDA-MB-231 breast = tested on: MDA-MB-231 breast
RPMI-8226 leukemia = tested on: RPMI-8226 leukemia
HL-60(TB) leukemia = tested on: HL-60(TB) leukemia
KM12 colon = tested on: KM12 colon
NCI-H460 lung = tested on: NCI-H460 lung
NCI/ADR-RES ovarian = tested on: NCI/ADR-RES ovarian
MOLT-4 leukemia = tested on: MOLT-4 leukemia
SF-295 CNS = tested on: SF-295 CNS
IGROV1 ovarian = tested on: IGROV1 ovarian
UACC-257 melanoma = tested on: UACC-257 melanoma
HCT-15 colon = tested on: HCT-15 colon
HCC-2998 colon = tested on: HCC-2998 colon
786-0 renal = tested on: 786-0 renal
SNB-75 CNS = tested on: SNB-75 CNS
A549 NSCLC = tested on: A549 NSCLC
TK-10 renal = tested on: TK-10 renal
RXF 393 renal = tested on: RXF 393 renal
UO-31 renal = tested on: UO-31 renal
SW-620 colon = tested on: SW-620 colon
OVCAR-3 ovarian = tested on: OVCAR-3 ovarian
U251 CNS = tested on: U251 CNS
A498 renal = tested on: A498 renal
SK-OV-3 ovarian = tested on: SK-OV-3 ovarian
BT-549 breast = tested on: BT-549 breast
CCRF-CEM leukemia = tested on: CCRF-CEM leukemia
SF-268 CNS = tested on: SF-268 CNS
SK-MEL-28 melanoma = tested on: SK-MEL-28 melanoma
HCT-116 colon = tested on: HCT-116 colon
OVCAR-4 ovarian = tested on: OVCAR-4 ovarian
OVCAR-8 ovarian = tested on: OVCAR-8 ovarian
SK-MEL-2 melanoma = tested on: SK-MEL-2 melanoma
MALME-3M melanoma = tested on: MALME-3M melanoma
M14 melanoma = tested on: M14 melanoma
NCI-H226 lung = tested on: NCI-H226 lung
SK-MEL-5 melanoma = tested on: SK-MEL-5 melanoma
MDA-MB-435 = tested on: MDA-MB-435
CAKI-1 renal = tested on: CAKI-1 renal
OVCAR-5 ovarian = tested on: OVCAR-5 ovarian
ACHN renal = tested on: ACHN renal
SF-539 CNS = tested on: SF-539 CNS

## O=C(CN1CCN(CCCOc2c(-c3ccccc3)oc3ccccc3c2=O)CC1)Nc1ccc(Cl)cc1C(=O)c1ccccc1Cl
HOP-62 NSCLC
  GI50: 10.4 µM
  TGI: 28.1 µM
EKVX NSCLC
  GI50: 22.7 µM
  TGI: > 100 µM
PC-3 prostate
  GI50: 3.18 µM
  TGI: 21.4 µM
DU-145 prostate
  GI50: 19.8 µM
  TGI: > 100 µM
SN12C renal
  GI50: 4.98 µM
  TGI: 18 µM
SR leukemia
  GI50: 3.14 µM
  TGI: 8.17 µM
K-562 leukemia
  GI50: 4.18 µM
  TGI: > 100 µM
NCI-H23 lung
  GI50: 12.4 µM
  TGI: 41.9 µM
HOP-92 NSCLC
  GI50: 1.05 µM
  TGI: 6.6 µM
HT29 colon
  GI50: 3.09 µM
  TGI: > 100 µM
LOX IMVI melanoma
  GI50: 3.87 µM
  TGI: 14.4 µM
NCI-H522 lung
  GI50: 16.6 µM
  TGI: 57.2 µM
HS 578T breast
  GI50: 8.45 µM
  TGI: 60.8 µM
T-47D breast
  GI50: 6.7 µM
  TGI: 33.9 µM
MCF7 breast
  GI50: 3.5 µM
  TGI: 26.5 µM
SNB-19 CNS
  GI50: 8.09 µM
  TGI: > 100 µM
COLO 205 colon
  GI50: 13.4 µM
  TGI: 30.2 µM
UACC-62 melanoma
  GI50: 12.3 µM
  TGI: 26.3 µM
MDA-MB-231 breast
  GI50: 4.26 µM
  TGI: 19.3 µM
RPMI-8226 leukemia
  GI50: 2.59 µM
  TGI: 7.14 µM
HL-60(TB) leukemia
  GI50: > 100 µM
  TGI: > 100 µM
KM12 colon
  GI50: 5.73 µM
  TGI: 29.9 µM
NCI-H460 lung
  GI50: 3.64 µM
  TGI: > 100 µM
NCI/ADR-RES ovarian
  GI50: 5.74 µM
  TGI: 26.4 µM
MOLT-4 leukemia
  GI50: 3.98 µM
  TGI: 66.7 µM
SF-295 CNS
  GI50: 4.79 µM
  TGI: 18.2 µM
IGROV1 ovarian
  GI50: 6.16 µM
  TGI: 47.3 µM
UACC-257 melanoma
  GI50: 4.59 µM
  TGI: 20.5 µM
HCT-15 colon
  GI50: 5.48 µM
  TGI: 53.8 µM
HCC-2998 colon
  GI50: 2.26 µM
  TGI: 4.23 µM
786-0 renal
  GI50: 5.58 µM
  TGI: 19.4 µM
SNB-75 CNS
  GI50: 4.39 µM
  TGI: 47.1 µM
A549 NSCLC
  GI50: 6.37 µM
  TGI: > 100 µM
TK-10 renal
  GI50: 16.6 µM
  TGI: 54.1 µM
RXF 393 renal
  GI50: 2.57 µM
  TGI: 8.79 µM
UO-31 renal
  GI50: 9.28 µM
  TGI: 29.4 µM
SW-620 colon
  GI50: 0.336 µM
  TGI: > 100 µM
OVCAR-3 ovarian
  GI50: 5.79 µM
  TGI: 19.5 µM
U251 CNS
  GI50: 5.86 µM
  TGI: 19.1 µM
A498 renal
  GI50: 21.5 µM
  TGI: 81.8 µM
SK-OV-3 ovarian
  GI50: 15.1 µM
  TGI: 54.2 µM
BT-549 breast
  GI50: 14.1 µM
  TGI: 40.5 µM
CCRF-CEM leukemia
  GI50: 0.635 µM
  TGI: 12 µM
SF-268 CNS
  GI50: 23.2 µM
  TGI: > 100 µM
SK-MEL-28 melanoma
  GI50: 3.66 µM
  TGI: 15.2 µM
HCT-116 colon
  GI50: 4.44 µM
  TGI: 16.6 µM
OVCAR-4 ovarian
  GI50: 7.48 µM
  TGI: 54.8 µM
OVCAR-8 ovarian
  GI50: 4.33 µM
  TGI: 22.2 µM
SK-MEL-2 melanoma
  GI50: 12.5 µM
  TGI: 31 µM
MALME-3M melanoma
  GI50: 4 µM
  TGI: 8.91 µM
M14 melanoma
  GI50: 2.01 µM
  TGI: 4.51 µM
NCI-H226 lung
  GI50: 13.9 µM
  TGI: 40.2 µM
SK-MEL-5 melanoma
  GI50: 5.93 µM
  TGI: 25.2 µM
MDA-MB-435
  GI50: 4.13 µM
  TGI: 17 µM
CAKI-1 renal
  GI50: 12.9 µM
  TGI: 36.9 µM
OVCAR-5 ovarian
  GI50: 27.2 µM
  TGI: 90.8 µM
ACHN renal
  GI50: 14.8 µM
  TGI: > 100 µM
SF-539 CNS
  GI50: 6.68 µM
  TGI: 22.2 µM
